Assay results: patent publication US8883782B2, “Spiro-tetracyclic ring compounds as beta-secretase modulators and methods of use” (Amgen Inc., priority 2010, dated 2014)
pIC50: −log10 of the molar value.

Experiments:
[1] = target: Beta Secretase enzyme (BACE) (Homo sapiens, UniProt P56817); test: In vitro enzymatic BACE FRET (fluorescence resonance energy transfer) assay; assay type: biochemical; settings: average IC50, enzyme assay; read-out: BACE 1 FRET assay
Outline: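 Run in 0.05 M acetate pH 4.2 with 10% DMSO final and 100 uM genapol; started by adding 50 nM FRET peptide substrate (fluorophore and quencher flanking the cleavage site), incubated one hour, then stopped with Tris to neutral pH before reading fluorescence.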

[2] = test system: Aβ40 in conditioned medium of cells stably expressing Amyloid Precursor Protein (APP); test: In vitro BACE cell-based assay (Aβ40 in conditioned medium, sandwich ELISA); settings: Homo sapiens, HEK293, average IC50; read-out: HEK cell assay
Outline: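 Quantification relied on pAb40/6E10 sandwich ELISA with Europium fluorescence counts, and IC50 was fitted versus concentration.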

Chain of Beta Secretase enzyme (BACE) (P56817 46-501, species assumed): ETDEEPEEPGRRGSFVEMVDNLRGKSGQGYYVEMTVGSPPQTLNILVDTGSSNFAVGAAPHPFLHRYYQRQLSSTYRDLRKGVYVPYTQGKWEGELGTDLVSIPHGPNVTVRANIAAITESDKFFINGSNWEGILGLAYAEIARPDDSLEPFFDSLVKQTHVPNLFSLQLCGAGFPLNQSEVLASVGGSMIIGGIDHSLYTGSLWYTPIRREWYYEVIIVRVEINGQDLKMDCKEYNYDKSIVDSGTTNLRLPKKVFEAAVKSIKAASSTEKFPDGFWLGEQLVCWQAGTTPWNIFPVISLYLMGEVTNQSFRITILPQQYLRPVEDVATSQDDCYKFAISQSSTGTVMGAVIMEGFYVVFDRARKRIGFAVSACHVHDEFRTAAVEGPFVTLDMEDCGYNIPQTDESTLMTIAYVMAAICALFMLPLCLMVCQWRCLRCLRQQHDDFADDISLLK

| SMILES | pIC50 [1] | pIC50 [2] |
| --- | --- | --- |
| COc1ncc(-c2cc(F)c3c(c2)[C@]2(COC(N)=N2)c2cc(-c4cncc(F)c4)ccc2O3)cn1 [Example 293, (4S)-4′-fluoro-7′-(5-fluoro-3-pyridinyl)-2′-(2-methoxy-5-pyrimidinyl)spiro[1,3-oxazole-4,9′-xanthen]-2-amine] | 8.12 | 7.08 |
| CC1(COc2cc(F)c3c(c2)[C@]2(COC(N)=N2)c2cc(-c4cccnc4)c(F)cc2O3)COC1 [Example 294, (4S)-3′,5′-difluoro-7′-((3-methyl-3-oxetanyl)methoxy)-2′-(3-pyridinyl)spiro[1,3-oxazole-4,9′-xanthen]-2-amine] | 7.21 | 6.21 |
| NC1=N[C@@]2(CO1)c1cc(-c3ccc(F)nc3)ccc1Oc1c(F)cc(C3CCOCC3)cc12 [Example 301, (4S)-4′-fluoro-7′-(6-fluoro-3-pyridinyl)-2′-(tetrahydro-2H-pyran-4-yl)spiro[1,3-oxazole-4,9′-xanthen]-2-amine] | 8.32 | 7.80 |
| CC(C)(C)C#Cc1cc2c(cn1)Oc1cc(F)c(-c3cncnc3)cc1[C@@]21COC(N)=N1 [Example 305, (5S)-3-(3,3-dimethyl-1-butyn-1-yl)-8-fluoro-7-(5-pyrimidinyl)spiro[chromeno[2,3-c]pyridine-5,4′-[1,3]oxazol]-2′-amine] | 8.00 | 7.02 |
| N#Cc1cccc(-c2cc3c(cn2)Oc2c(F)cc(C4=CCOCC4)cc2[C@]32COC(N)=N2)c1 [Example 308, 3-((5S)-2′-amino-7-(3,6-dihydro-2H-pyran-4-yl)-9-fluorospiro[chromeno[2,3-c]pyridine-5,4′-[1,3]oxazol]-3-yl)benzonitrile] | 8.03 | 6.93 |
| COC(C)(C)COc1cnc2c(c1)[C@@]1(COC(N)=N1)c1cc(-c3cccc(F)c3F)ccc1O2 [Example 314, (5R)-7-(2,3-difluorophenyl)-3-(2-methoxy-2-methylpropoxy)spiro[chromeno[2,3-b]pyridine-5,4′-[1,3]oxazol]-2′-amine] | 5.72 | 5.44 |
| COC(C)(C)COc1cnc2c(c1)[C@]1(COC(N)=N1)c1cc(-c3cccc(F)c3F)ccc1O2 [Example 315, (5S)-7-(2,3-difluorophenyl)-3-(2-methoxy-2-methylpropoxy)spiro[chromeno[2,3-b]pyridine-5,4′-[1,3]oxazol]-2′-amine] | 8.28 | 7.50 |
| COC(C)(C)COc1cnc2c(c1)[C@@]1(COC(N)=N1)c1cc(-c3cccc(C(F)(F)F)c3)ccc1O2 [Example 316, (5R)-3-(2-methoxy-2-methylpropoxy)-7-(3-(trifluoromethyl)phenyl)spiro[chromeno[2,3-b]pyridine-5,4′-[1,3]oxazol]-2′-amine] | 6.41 | 5.68 |
| COC(C)(C)COc1cnc2c(c1)[C@@]1(COC(N)=N1)c1cc(-c3cc(Cl)ccc3F)ccc1O2 [Example 318, (5R)-7-(5-chloro-2-fluorophenyl)-3-(2-methoxy-2-methylpropoxy)spiro[chromeno[2,3-b]pyridine-5,4′-[1,3]oxazol]-2′-amine] | 6.44 | 5.74 |
| NC1=N[C@@]2(CO1)c1cc(-c3cccnc3F)ccc1Oc1cc(F)c(C3=CCOCC3)cc12 [Example 320, (4S)-2′-(3,6-dihydro-2H-pyran-4-yl)-3′-fluoro-7′-(2-fluoro-3-pyridinyl)spiro[1,3-oxazole-4,9′-xanthen]-2-amine] | 8.18 | 7.22 |

The next molecules have a higher pIC50 [1] than those just listed; values first:

| pIC50 [1] | pIC50 [2] | SMILES |
| --- | --- | --- |
| 8.51 | 8.25 | NC1=N[C@@]2(CO1)c1cc(-c3ccc(F)nc3)ccc1Oc1c(F)cc(N3C[C@@H]4C[C@H]3CO4)cc12 [Example 302, (4S)-4′-fluoro-7′-(6-fluoro-3-pyridinyl)-2′-((1S,4S)-2-oxa-5-azabicyclo[2.2.1]hept-5-yl)spiro[1,3-oxazole-4,9′-xanthen]-2-amine] |
| 8.70 | 8.17 | C[C@@H]1CN(c2cc(F)c3c(c2)[C@]2(COC(N)=N2)c2cc(-c4cccnc4F)ccc2O3)C[C@H](C)O1 [Example 303, (4S)-2′-((2R,6S)-2,6-dimethyl-4-morpholinyl)-4′-fluoro-7′-(2-fluoro-3-pyridinyl)spiro[1,3-oxazole-4,9′-xanthen]-2-amine] |
| 8.68 | 7.62 | CC(C)(C)/C=C/c1cc2c(cn1)Oc1cc(F)c(-c3cncnc3)cc1[C@@]21COC(N)=N1 [Example 304, (5S)-3-((1E)-3,3-dimethyl-1-buten-1-yl)-8-fluoro-7-(5-pyrimidinyl)spiro[chromeno[2,3-c]pyridine-5,4′-[1,3]oxazol]-2′-amine] |
| 8.82 | 7.25 | NC1=N[C@@]2(CO1)c1cc(-c3cccnc3F)ncc1Oc1c(F)cc(C3=CCOCC3)cc12 [Example 306, (5S)-7-(3,6-dihydro-2H-pyran-4-yl)-9-fluoro-3-(2-fluoro-3-pyridinyl)spiro[chromeno[2,3-c]pyridine-5,4′-[1,3]oxazol]-2′-amine] |
| 8.41 | 7.24 | NC1=N[C@@]2(CO1)c1cc(-c3cccnc3)ncc1Oc1c(F)cc(C3=CCOCC3)cc12 [Example 307, (5S)-7-(3,6-dihydro-2H-pyran-4-yl)-9-fluoro-3-(3-pyridinyl)spiro[chromeno[2,3-c]pyridine-5,4′-[1,3]oxazol]-2′-amine] |
| 8.49 | 6.95 | CC1(COc2cc3c(cc2F)Oc2ccc(-c4cccc(Cl)c4)cc2[C@@]32COC(N)=N2)COC1 [Example 310, (4S)-7′-(3-chlorophenyl)-3′-fluoro-2′-((3-methyl-3-oxetanyl)methoxy)spiro[1,3-oxazole-4,9′-xanthen]-2-amine] |
| 8.41 | 7.71 | Cn1cc(-c2cc3c(cc2F)Oc2ccc(-c4cccnc4F)cc2[C@@]32COC(N)=N2)cn1 [Example 311, (4S)-3′-fluoro-7′-(2-fluoro-3-pyridinyl)-2′-(1-methyl-1H-pyrazol-4-yl)spiro[1,3-oxazole-4,9′-xanthen]-2-amine] |
| 8.60 | 7.52 | CC1(C#Cc2cc3c(cc2F)Oc2ccc(-c4cccnc4F)cc2[C@@]32COC(N)=N2)COC1 [Example 312, (4S)-3′-fluoro-7′-(2-fluoro-3-pyridinyl)-2′-((3-methyl-3-oxetanyl)ethynyl)spiro[1,3-oxazole-4,9′-xanthen]-2-amine] |
| 8.74 | 7.10 | Cn1cc(-c2cc3c(cc2F)Oc2ccc(-c4cccc(Cl)c4)cc2[C@@]32COC(N)=N2)cn1 [Example 313, (4S)-7′-(3-chlorophenyl)-3′-fluoro-2′-(1-methyl-1H-pyrazol-4-yl)spiro[1,3-oxazole-4,9′-xanthen]-2-amine] |
| 8.60 | 7.62 | COC(C)(C)COc1cnc2c(c1)[C@]1(COC(N)=N1)c1cc(-c3cccc(C(F)(F)F)c3)ccc1O2 [Example 317, (5S)-3-(2-methoxy-2-methylpropoxy)-7-(3-(trifluoromethyl)phenyl)spiro[chromeno[2,3-b]pyridine-5,4′-[1,3]oxazol]-2′-amine] |
| 9.15 | 8.28 | COC(C)(C)COc1cnc2c(c1)[C@]1(COC(N)=N1)c1cc(-c3cc(Cl)ccc3F)ccc1O2 [Example 319, (5S)-7-(5-chloro-2-fluorophenyl)-3-(2-methoxy-2-methylpropoxy)spiro[chromeno[2,3-b]pyridine-5,4′-[1,3]oxazol]-2′-amine] |
